The text below walks through data of publication PMC5667785 (International Journal of Nanomedicine, 2017).

A short description of data set [1]: Cur stability in Krebs–Ringer intestinal circulation-perfusion solution. Format: physicochemical. The note with it: 2 hours at 37°C.
Data set [2] has as its system liver microsomal enzymes. The conditions noted are these: within 30 minutes ref 14; cited from earlier work.
Data set [3] can be described thus: Critical micelle concentration by surface-tension measurements. It counts as physicochemical.

For `COc1cc(/C=C/C(=O)CC(=O)/C=C/c2ccc(O)c(OC)c2)ccc1O` [Cur, Curcumin], the “Cur stability in the KR solution” value in data set [1] is “neither degraded”. Moreover, in data set [2], the “Biotransformation of Cur to sulfate or glucuronide conjugates” value is listed as 90%.
Regarding TCA-PEG100-monostearate [S100-TCA], the Critical micelle concentration in data set [3] was determined as 15.86 ± 0.53 µg/mL.
